Here are results for one molecule from ChEMBL document CHEMBL1649181 (2009).

What all share (format): functional
The test system of assay [1] is Mycobacterium tuberculosis. Nature of the assay: Antimicrobial activity against Mycobacterium tuberculosis harboring 259A to P mutation in thymidylate synthase A by agar dilution method. For orientation: In agar dilution, organisms are placed on agar that contains the substance at set levels.
The subject of assay [2] is Mycobacterium tuberculosis. The experiment in a line: Antimicrobial activity against Mycobacterium tuberculosis harboring 11Q to Stop mutation in thymidylate synthase A by agar dilution method.
Assay [3] concerns Mycobacterium tuberculosis. Nature of the assay: Antimicrobial activity against Mycobacterium tuberculosis harboring 191Q to R mutation in thymidylate synthase A by agar dilution method.
Assay [4] deals with Mycobacterium tuberculosis. The experiment in a line: Antimicrobial activity against Mycobacterium tuberculosis harboring 182A to P mutation in thymidylate synthase A by agar dilution method.
In assay [5] the test system is Mycobacterium tuberculosis. The experiment in a line: Antimicrobial activity against Mycobacterium tuberculosis harboring 164Y to Stop mutation in thymidylate synthase A by agar dilution method.
In assay [6] the test system is Mycobacterium tuberculosis. Nature of the assay: Antimicrobial activity against Mycobacterium tuberculosis harboring 15G to R mutation in thymidylate synthase A by agar dilution method.
For assay [7], the system named is Mycobacterium tuberculosis. Nature of the assay: Antimicrobial activity against Mycobacterium tuberculosis harboring 172L to P mutation in thymidylate synthase A by agar dilution method.
Assay [8] has as its system Mycobacterium tuberculosis. The experiment in a line: Antimicrobial activity against Mycobacterium tuberculosis harboring 261V to G mutation in thymidylate synthase A by agar dilution method.
The subject of assay [9] is Mycobacterium tuberculosis. Nature of the assay: Antimicrobial activity against Mycobacterium tuberculosis harboring 202T to A mutation in thymidylate synthase A by agar dilution method.
The subject of assay [10] is Mycobacterium tuberculosis. Nature of the assay: Antimicrobial activity against Mycobacterium tuberculosis harboring 183L to V mutation in thymidylate synthase A by agar dilution method.
Assay [11] deals with Mycobacterium tuberculosis. The experiment in a line: Antimicrobial activity against Mycobacterium tuberculosis harboring 146C to R mutation in thymidylate synthase A by agar dilution method.
Assay [12] has as its system Mycobacterium tuberculosis. The experiment in a line: Antimicrobial activity against Mycobacterium tuberculosis harboring 264Stop to R mutation in thymidylate synthase A by agar dilution method.
The subject of assay [13] is Mycobacterium tuberculosis. Nature of the assay: Antimicrobial activity against Mycobacterium tuberculosis harboring 251Y to Stop mutation in thymidylate synthase A by agar dilution method.
Assay [14] concerns Mycobacterium tuberculosis. Nature of the assay: Antimicrobial activity against Mycobacterium tuberculosis harboring 143L to P mutation in thymidylate synthase A by agar dilution method.
Assay [15] deals with Mycobacterium tuberculosis. The experiment in a line: Antimicrobial activity against Mycobacterium tuberculosis harboring 83W to Stop mutation in thymidylate synthase A by agar dilution method.
For assay [16], the system named is Mycobacterium tuberculosis. The experiment in a line: Antimicrobial activity against Mycobacterium tuberculosis harboring 127R to L mutation in thymidylate synthase A by agar dilution method.
The test system of assay [17] is Mycobacterium tuberculosis. Nature of the assay: Antimicrobial activity against Mycobacterium tuberculosis harboring 153Y to Stop mutation in thymidylate synthase A by agar dilution method.
Assay [18] concerns Mycobacterium tuberculosis. Nature of the assay: Antimicrobial activity against Mycobacterium tuberculosis harboring 118L to Stop mutation in thymidylate synthase A by agar dilution method.

In brackets after ≈: the same amount, converted by molar mass.

With `Nc1ccc(C(=O)O)c(O)c1` [AMINOSALICYLIC ACID], the MIC in assay [1] was 64 µg/mL (≈ 418 µM); in assay [2] it was greater than 128 µg/mL; in assay [3] it was less than 64 µg/mL; in assay [4] it was greater than 128 µg/mL; in [5], greater than 128 µg/mL; in assay [6] it was greater than 8 µg/mL. The minimal inhibitory concentration (MIC) in assay [7] is greater than 128 µg/mL; in assay [8], greater than 128 µg/mL; in assay [9], less than 128 µg/mL; in [10] it was less than 64 µg/mL; in assay [11], greater than 128 µg/mL; in assay [12], greater than 128 µg/mL. Moreover, the MIC in assay [13], in assay [14], in assay [15], in assay [16], in [17] and in assay [18] was greater than 128 µg/mL each time.

For orientation: MIC means the lowest concentration found to suppress growth. A low value points to inhibition by little substance.
